Results as given in article PMC4513132, “Oxidation of Monolignols by Members of the Berberine Bridge Enzyme Family Suggests a Role in Plant Cell Wall Metabolism” (The Journal of Biological Chemistry, 2015).

What was measured:
AtBBE-like 15 [1] = biological target: T1, AtBBE-like 15 (Arabidopsis thaliana, UniProt O64743); experiment: Thermofluor, SYPRO Orange; type: binding; conditions: 50 mM MES pH 7.0, 2 mg/ml ligand
T1 construct: gene MEE23; secreted by Komagataella pastoris (codon-optimised synthetic gene); crystallised as 27-532; bicovalent FAD (His-115, Cys-179)

AtBBE-like 15 [2] = biological target: T1, AtBBE-like 15; experiment: X-ray crystal structure, […] Å; type: binding; conditions: covalent (bicovalent: His-115 to 8α-methyl, Cys-179 to C6)
AtBBE-like 13 = biological target: T2, AtBBE-like 13 (Arabidopsis thaliana, UniProt Q93ZA3); experiment: stopped-flow reductive half-reaction, flavin absorbance at […] nm; type: biochemical; conditions: 50 mM potassium phosphate pH 7.0, 25 °C, anoxic
T2 construct: gene At1g30760; isolated from Komagataella pastoris cells (codon-optimised synthetic gene)

AtBBE-like 15 [3] = biological target: T1, AtBBE-like 15; experiment: as above; type: biochemical; conditions: 50 mM potassium phosphate pH 7.0, 25 °C, anoxic

T1 sequence (O64743 27-532): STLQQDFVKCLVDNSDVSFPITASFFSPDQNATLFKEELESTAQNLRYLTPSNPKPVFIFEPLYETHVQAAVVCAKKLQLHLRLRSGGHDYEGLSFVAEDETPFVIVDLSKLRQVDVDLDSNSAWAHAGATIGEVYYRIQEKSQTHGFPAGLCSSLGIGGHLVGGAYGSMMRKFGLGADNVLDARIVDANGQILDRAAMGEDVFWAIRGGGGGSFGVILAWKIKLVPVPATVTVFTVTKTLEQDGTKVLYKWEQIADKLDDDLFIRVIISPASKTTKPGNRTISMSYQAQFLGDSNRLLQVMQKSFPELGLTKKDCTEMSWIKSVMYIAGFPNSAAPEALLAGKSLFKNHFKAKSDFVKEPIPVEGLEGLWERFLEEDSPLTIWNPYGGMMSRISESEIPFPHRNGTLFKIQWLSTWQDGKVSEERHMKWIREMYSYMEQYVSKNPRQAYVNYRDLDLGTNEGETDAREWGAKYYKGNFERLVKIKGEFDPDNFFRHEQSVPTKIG
T2 sequence (Q93ZA3 31-534): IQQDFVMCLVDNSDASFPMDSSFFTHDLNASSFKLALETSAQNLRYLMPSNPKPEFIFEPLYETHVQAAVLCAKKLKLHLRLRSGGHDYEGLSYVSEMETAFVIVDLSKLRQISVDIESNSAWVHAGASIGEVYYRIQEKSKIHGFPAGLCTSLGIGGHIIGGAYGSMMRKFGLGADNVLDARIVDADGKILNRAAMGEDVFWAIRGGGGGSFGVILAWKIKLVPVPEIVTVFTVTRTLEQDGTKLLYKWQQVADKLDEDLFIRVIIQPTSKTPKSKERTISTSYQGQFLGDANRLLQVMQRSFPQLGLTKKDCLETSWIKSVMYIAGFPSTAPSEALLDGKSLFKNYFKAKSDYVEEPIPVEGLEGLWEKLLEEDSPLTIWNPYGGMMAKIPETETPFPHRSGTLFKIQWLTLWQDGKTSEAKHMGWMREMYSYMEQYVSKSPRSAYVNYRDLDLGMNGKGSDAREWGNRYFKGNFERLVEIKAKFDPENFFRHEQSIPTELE

Row | Kd (AtBBE-like 13) | Kd (AtBBE-like 15 [3]) | SMILES | increase of the melting temperature (AtBBE-like 15 [1]) | X-ray crystal structure, 2.1 Å (AtBBE-like 15 [2])
1 | – | – | OC[C@H]1OC(O)[C@H](O)[C@@H](O)[C@@H]1O (stereo partly drawn) [D-glucose] | monosaccharides, such as D-glucose, had such a profound effect on the protein's thermal stability | –
2 | – | – | Cc1cc2nc3c(=O)[nH]c(=O)nc-3n(C[C@H](O)[C@H](O)[C@H](O)COP(=O)(O)OP(=O)(O)OC[C@H]3O[C@@H](n4cnc5c(N)ncnc54)[C@H](O)[C@@H]3O)c2cc1C [FAD] | – | The FAD cofactor is bicovalently linked to the peptide chain
3 | 1860 ± 624 µM | 660 ± 100 µM | COc1cc(/C=C/CO)ccc1O[C@@H]1O[C@H](CO)[C@@H](O)[C@H](O)[C@H]1O [coniferin] | – | –
4 | 867 ± 123 µM | 700 ± 120 µM | OC/C=C/c1ccc(O)cc1 [p-coumaryl alcohol] | – | –
